Legend:
Format in all cases: cell-based
[1] = test system: Staphylococcus aureus 27217; assay: Checkerboard MIC test, pyrithiones with silver salts; conditions: silver ion alone or in the inhibitory mixture; TSB pH 7.3, 35° C., 1 to 2 days
[2] = test system: Staphylococcus aureus ATCC 27217; assay: Zone of inhibition test (paper disc on TSA); conditions: 6.5 mm discs; 0.135% pyrithione, 0.1% ZnCl2 or both; 28° C., 24 hr
[3] = test system: Pseudomonas aeruginosa NCIMB 6749; assay: Zone of inhibition test (paper disc on TSA); conditions: 6.5 mm discs; 0.135% pyrithione, 0.1% ZnCl2 or both; 28° C., 24 hr
[4] = test system: Escherichia coli ATCC 10536; assay: Zone of inhibition test (paper disc on TSA); conditions: 6.5 mm discs; 0.135% pyrithione, 0.1% ZnCl2 or both; 28° C., 24 hr
[5] = test system: Pseudomonas aeruginosa NCIMB 6749; assay: Checkerboard MIC test, pyrithiones with zinc salts; conditions: pyrithione alone or pyrithione concentration in the inhibitory mixture; TSB, 28 C, 3 days
[6] = test system: Staphylococcus aureus ATCC 27217; assay: Checkerboard MIC test, pyrithiones with zinc salts; conditions: pyrithione alone or pyrithione concentration in the inhibitory mixture; TSB, 28 C, 3 days
Fusarium sp. = assay: Checkerboard MIC test, pyrithiones with zinc salts; conditions: pyrithione alone or pyrithione concentration in the inhibitory mixture; TSB, 28 C, 5 days
Description: Mixtures of pyrithione and zinc or silver in various proportions were tested for relative efficacy by a modification of the procedure described by Dougherty, et al.
Equal volumes of bacteria (10^6 cells/ml) or fungi (10^5 spores/ml) were added to each microtiter plate well. The plates were incubated at 28 C for 3 days (bacteria) or 5 days (fungi), and the minimum inhibitory concentration (MIC) of biocide was determined. The Fractional Inhibitory Concentration (FIC=concentration of biocide in an inhibitory mixture divided by the MIC of the pure biocide) was determined, and the FIC Index (sum of the two FIC's) was calculated. The type of interaction was categorized according to the magnitude of the Index: Synergistic (<1), Additive (1), or Antagonistic (>1).

Row | SMILES | MIC Ag^+1 Ion [1] [ppm] | Zone of Inhibition [2] [mm] | Zone of Inhibition [3] [mm] | Zone of Inhibition [4] [mm] | MIC Pyrithione [5] [ppm] | MIC Pyrithione [6] [ppm] | MIC Pyrithione (Fusarium sp.) [ppm]
1 | [Ag+].[Ag+].[O-2] [Ag2O] | 29.8 | – | – | – | – | – | –
2 | O.O.O.O=S(=O)([O-])[O-].[Mg+2].[O-][n+]1ccccc1SSc1cccc[n+]1[O-] [MDS, MgSO4.3H2O adduct of 2,2′-dithiopyridine-1,1′-dioxide] | – | 28 | 0 | 31 | 1024 | 8 | >1843
3 | [Cl-].[Cl-].[Zn+2] [ZnCl2] | – | 0 | 0 | 0 | – | – | –
